Test results from PubChem BioAssay (NCI).
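Each compound was tested at five concentrations against cells in 96-well plates for 48 hours. Definition used: TGI = concentration required for complete inhibition of growth.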

Key:
Test in all cases: NCI-60 cell line screen, 48 h
U251 CNS = tested on: U251 CNS
UACC-257 melanoma = tested on: UACC-257 melanoma
SF-539 CNS = tested on: SF-539 CNS
OVCAR-8 ovarian = tested on: OVCAR-8 ovarian
HCC-2998 colon = tested on: HCC-2998 colon
SNB-78 CNS = tested on: SNB-78 CNS
SN12C renal = tested on: SN12C renal
MALME-3M melanoma = tested on: MALME-3M melanoma
HT29 colon = tested on: HT29 colon
TK-10 renal = tested on: TK-10 renal
786-0 renal = tested on: 786-0 renal
CCRF-CEM leukemia = tested on: CCRF-CEM leukemia
DMS 273 small cell lung = tested on: DMS 273 small cell lung
HCT-15 colon = tested on: HCT-15 colon
SK-OV-3 ovarian = tested on: SK-OV-3 ovarian
HL-60(TB) leukemia = tested on: HL-60(TB) leukemia
LOX IMVI melanoma = tested on: LOX IMVI melanoma
K-562 leukemia = tested on: K-562 leukemia
OVCAR-5 ovarian = tested on: OVCAR-5 ovarian
HCT-116 colon = tested on: HCT-116 colon
KM20L2 colon = tested on: KM20L2 colon
HOP-62 NSCLC = tested on: HOP-62 NSCLC
UO-31 renal = tested on: UO-31 renal
NCI-H522 lung = tested on: NCI-H522 lung
SK-MEL-28 melanoma = tested on: SK-MEL-28 melanoma
MOLT-4 leukemia = tested on: MOLT-4 leukemia
RXF 393 renal = tested on: RXF 393 renal
CAKI-1 renal = tested on: CAKI-1 renal
A549 NSCLC = tested on: A549 NSCLC
LXFL 529 NSCLC = tested on: LXFL 529 NSCLC
UACC-62 melanoma = tested on: UACC-62 melanoma
SK-MEL-2 melanoma = tested on: SK-MEL-2 melanoma
RPMI-8226 leukemia = tested on: RPMI-8226 leukemia
COLO 205 colon = tested on: COLO 205 colon
XF 498 CNS = tested on: XF 498 CNS
NCI-H226 lung = tested on: NCI-H226 lung
DLD-1 colon = tested on: DLD-1 colon
SR leukemia = tested on: SR leukemia
ACHN renal = tested on: ACHN renal
M19-MEL melanoma = tested on: M19-MEL melanoma
KM12 colon = tested on: KM12 colon
IGROV1 ovarian = tested on: IGROV1 ovarian
HOP-18 NSCLC = tested on: HOP-18 NSCLC
SNB-75 CNS = tested on: SNB-75 CNS
SNB-19 CNS = tested on: SNB-19 CNS
DMS 114 small cell lung = tested on: DMS 114 small cell lung
SF-268 CNS = tested on: SF-268 CNS
OVCAR-3 ovarian = tested on: OVCAR-3 ovarian
NCI-H460 lung = tested on: NCI-H460 lung
SW-620 colon = tested on: SW-620 colon
OVCAR-4 ovarian = tested on: OVCAR-4 ovarian
NCI-H23 lung = tested on: NCI-H23 lung
M14 melanoma = tested on: M14 melanoma
A498 renal = tested on: A498 renal
EKVX NSCLC = tested on: EKVX NSCLC
SF-295 CNS = tested on: SF-295 CNS
SK-MEL-5 melanoma = tested on: SK-MEL-5 melanoma
HOP-92 NSCLC = tested on: HOP-92 NSCLC

Measured: TGI

COC(=O)C(Cc1nc2ccc(Cl)cc2[nH]c1=O)/C(=N/O)C(=O)Nc1cccc(Cl)c1C (stereo not given)
> 100 µM: U251 CNS | UACC-257 melanoma | SF-539 CNS | OVCAR-8 ovarian | HCC-2998 colon | SNB-78 CNS | SN12C renal | MALME-3M melanoma | HT29 colon | TK-10 renal | 786-0 renal | CCRF-CEM leukemia | DMS 273 small cell lung | HCT-15 colon | SK-OV-3 ovarian | HL-60(TB) leukemia | LOX IMVI melanoma | K-562 leukemia | OVCAR-5 ovarian | HCT-116 colon | KM20L2 colon | HOP-62 NSCLC | UO-31 renal | NCI-H522 lung | SK-MEL-28 melanoma | MOLT-4 leukemia | RXF 393 renal | CAKI-1 renal | A549 NSCLC | LXFL 529 NSCLC | UACC-62 melanoma | SK-MEL-2 melanoma | RPMI-8226 leukemia | COLO 205 colon | XF 498 CNS | NCI-H226 lung | DLD-1 colon | SR leukemia | ACHN renal | M19-MEL melanoma | KM12 colon | IGROV1 ovarian | HOP-18 NSCLC | SNB-75 CNS | SNB-19 CNS | DMS 114 small cell lung | SF-268 CNS | OVCAR-3 ovarian | NCI-H460 lung | SW-620 colon | OVCAR-4 ovarian | NCI-H23 lung | M14 melanoma | A498 renal | EKVX NSCLC | SF-295 CNS | SK-MEL-5 melanoma

Cc1nc2nnnn2c2c1C(=O)Nc1ccccc1N2
> 100 µM: U251 CNS | UACC-257 melanoma | SF-539 CNS | OVCAR-8 ovarian | HCC-2998 colon | SNB-78 CNS | SN12C renal | MALME-3M melanoma | HT29 colon | TK-10 renal | 786-0 renal | CCRF-CEM leukemia | DMS 273 small cell lung | SK-OV-3 ovarian | HL-60(TB) leukemia | LOX IMVI melanoma | K-562 leukemia | HCT-116 colon | KM20L2 colon | HOP-62 NSCLC | UO-31 renal | NCI-H522 lung | SK-MEL-28 melanoma | MOLT-4 leukemia | RXF 393 renal | A549 NSCLC | LXFL 529 NSCLC | UACC-62 melanoma | SK-MEL-2 melanoma | RPMI-8226 leukemia | COLO 205 colon | XF 498 CNS | NCI-H226 lung | DLD-1 colon | SR leukemia | ACHN renal | M19-MEL melanoma | KM12 colon | IGROV1 ovarian | HOP-18 NSCLC | SNB-75 CNS | SNB-19 CNS | DMS 114 small cell lung | SF-268 CNS | OVCAR-3 ovarian | NCI-H460 lung | HOP-92 NSCLC | SW-620 colon | NCI-H23 lung | M14 melanoma | EKVX NSCLC | SF-295 CNS

CC(C)(Oc1ccc(C(=O)c2ccc(Cl)cc2)cc1Cl)C(=O)Nc1c(Cl)cccc1Cl
> 100 µM: U251 CNS | UACC-257 melanoma | SF-539 CNS | OVCAR-8 ovarian | SNB-78 CNS | MALME-3M melanoma | HT29 colon | TK-10 renal | 786-0 renal | CCRF-CEM leukemia | DMS 273 small cell lung | HCT-15 colon | SK-OV-3 ovarian | HL-60(TB) leukemia | LOX IMVI melanoma | K-562 leukemia | OVCAR-5 ovarian | HCT-116 colon | KM20L2 colon | HOP-62 NSCLC | UO-31 renal | NCI-H522 lung | SK-MEL-28 melanoma | MOLT-4 leukemia | RXF 393 renal | CAKI-1 renal | A549 NSCLC | LXFL 529 NSCLC | UACC-62 melanoma | SK-MEL-2 melanoma | RPMI-8226 leukemia | XF 498 CNS | DLD-1 colon | SR leukemia | M19-MEL melanoma | KM12 colon | IGROV1 ovarian | HOP-18 NSCLC | SNB-19 CNS | DMS 114 small cell lung | SF-268 CNS | OVCAR-3 ovarian | NCI-H460 lung | HOP-92 NSCLC | SW-620 colon | NCI-H23 lung | M14 melanoma | A498 renal | EKVX NSCLC | SF-295 CNS | SK-MEL-5 melanoma
